Measured values from patent US10799622B2, “Reducing post-operative adhesion formation with intraperitoneal glutamine” (AdeTherapeutics Inc., priority 2005, dated 2020).
Residues, ends and D or L forms follow the SMILES beside them.

Tests used:
[1] = test system: post-operative adhesion formation; test: Surgery as in Example 1 with Marlex mesh inserted, Zuhlke adhesion score (Example 2); assay type: in vivo, rats; settings: day 90
Protocol: Previous studies show a high incidence of adhesion formation when surgical mesh is employed as a reinforcing material [6a, 6b]. We repeated trials as described in Example 1, inserting Marlex™ mesh during the procedure on the surgical groups.
Severity of adhesions was assessed at day 90 using the adhesion score of Zuhlke, et al.. This scoring procedure has been described in the literature for assessment of other potential treatments for adhesions. […] This differs from previous measurements of adhesions using polypropylene mesh which reported up to about 90% adhesion formation [6a].

[2] = test system: post-operative adhesion formation; test: Modified cecal puncture abdominal surgery, histological assessment of post-operative adhesions (Example 1); assay type: in vivo, male Wistar rats; settings: for complications due to intraperitoneal use: 0.3-1.5 g/kg intraperitoneally; for reducing and/or preventing post-operative adhesions (including secondary adhesions): administered intra-peritoneally; for acute inflammatory response (macrophages and macrophage chemotactic proteins): days 3-7, vs saline and non-treatment surgical groups
Protocol: 70 plus male Wistar rats (over 350 g each) were assessed histologically on post-operative days 1,3,5,7,10, 30, and at about 6 weeks. The rats were randomly distributed based on the mode of treatment, type of sutures and presence or absence of hemorrhage during surgery. Initially, there were three surgery groups (alanyl-glutamine treatment, saline, no treatment) plus a control (no surgery).
The rats were anaesthetized with halothane/Ketamine. Open surgery involving a midline sub-umbilical incision and a modified cecal puncture with pulstring to prevent soilage after abdominal closure was done. The procedure involved some fecal extrusion, mimicking clinical scenarios of iatrogenic/traumatic perforations of the bowel. Alanyl-glutamine [Degussa; Coubevoie, France] […] (1.5 g/kg) was instilled into the peritoneal cavity from a syringe. The cecum, abdomen, and the skin were closed in layers using the same suture. Various absorbable (3/0 Vicryl™, 3/0 Monocryl™, 3/0 PDS™, 2/0 Maxon™) and non-absorbable sutures (3/0 Prolene™, 3/0 Ethibond™, 4/0 & 5/0 Surgilene™, 3/0 Novafil™) were used. The wound was infiltrated with local anesthetic. The animals were given sufficient chow to eat (20 g/day≈2 mmole/kg/day). The gastrointestinal tract and omentum were harvested from the stomach to the sigmoid colon and fixed in formaldehyde solution for evaluation.
The severity of adhesions was assessed histologically using standard Haematoxylin & Eosin and Masson trichrome stained slides. The latter helped delineate the degree of fibrosis and collagen deposition.
Semi-quantitative analysis was done by scoring the average number of milky spots per high-power-field (HPF). Quantitative statistical analysis was done using the T-test between the experimental groups. Milky spots are a marker for inflammation and adhesion formation.

secondary adhesions = test: Secondary adhesions after adhesiolysis in rats with mesh implants, Zuhlke score (Example 3); assay type: in vivo, Sprague-Dawley rats; settings: three weeks after adhesiolysis and installation, six months after initial surgery
Protocol: Adhesions tend to recur once in place. We examined the effect of alanyl-glutamine treatment on such secondary adhesions. The modified caecal perforation with pulstring closure procedure described in Example 1 was performed on 9 Sprague-Dawley rats. These were divided into 5 groups, each group receiving a different form of mesh (INTERCEED™; PROCEED™; BARD™ composite; prolene; and a mesh which was allowed to be “infected” by repeated re-opening of the wound). The surgical procedure with mesh implacement was performed without application of a glutamine source. Six months after initial surgery, a laparotomy was performed on each rat then adhesiolysis followed by installation of alanyl-glutamine.

[3] = test system: post-operative adhesion formation; test: Modified cecal puncture abdominal surgery, histological assessment of post-operative adhesions (Example 1); assay type: in vivo, male Wistar rats; settings: 0.3 g/kg intraperitoneal

Structure (SMILES) | adhesion score of Zuhlke, et al. [1] | complications due to intraperitoneal use [2] | effectiveness of dosage ([2]; 1.5 g/kg intraperitoneal) | histological appearance of the peritoneum (adhesion) ([2]; 10th post-operative day, intraperitoneal, vs untreated and saline treated surgical groups) | reducing and/or preventing post-operative adhesions (including secondary adhesions) ([2]; summary statement) | milky spots per 5 high power field (5HPF) in the peritoneum ([2]; controls 1 per 5HPF, untreated surgical group 6-7) | acute inflammatory response (macrophages and macrophage chemotactic proteins) [2] | adhesions in all the suture groups (braided and monofilament, absorbable and non-absorbable) ([2]; intraperitoneal) | effect in adhesion prevention compared with L-glutamine ([2]; summary statement) | recurrence of adhesions (secondary adhesions), scored according to Zuhlke, et al. (secondary adhesions) | effectiveness of dosage [3]
C[C@H](N)C(=O)N[C@@H](CCC(N)=O)C(=O)O [alanyl-glutamine] (H-Ala-Gln-OH) | 0-1 | did not observe complications | effective | very minimal adhesion | effective | the same as the controls | markedly reduced | prevented adhesions | more pronounced | no secondary adhesions were seen | effective
NC(=O)CC[C@H](N)C(=O)O [L-glutamine] |  | did not observe complications |  |  | effective |  | reduction, but to a lesser extent |  |  |  | 
